Reference: ChEMBL document CHEMBL1155575, “Kirkinine, a new daphnane orthoester with potent neurotrophic activity from Synaptolepis kirkii” (2000)

Assays:
Assay type in all cases: functional, Gallus gallus
[1] = Neurotrophic activity against chick embryo dorsal root ganglion assessed as neuronal viability at 7000 nM after 2 days by Calcein-AM assay
[2] = Neurotrophic activity against chick embryo dorsal root ganglion assessed as neuronal viability at 70 nM after 2 days by Calcein-AM assay
[3] = Neurotrophic activity against chick embryo dorsal root ganglion assessed as neuronal viability at 700 nM after 2 days by Calcein-AM assay

`C=C(C)[C@@]12O[C@@]3(/C=C/CCCCCCCCCCCCC)O[C@@H]1[C@@H]1[C@@H]4O[C@]4(CO)[C@@H](O)[C@]4(O)C(=O)C(C)=C[C@H]4[C@@]1(O3)[C@H](C)[C@H]2OC(C)=O` [KIRKININE] gave an Activity [1] of 142%, an Activity [2] of 57% and an Activity [3] of 103%.
